From BindingDB's records for doi:10.1016/j.bmcl.2004.05.036 (Abbott Laboratories, 2004) come the findings set out here.

The term EC50 denotes the concentration giving half of the maximal effect.

This experiment can be described thus: Antiviral activity against HIV protease in absence of human serum.

In the case of `CCCCN1C(=O)N(Cc2cccc(C(=N)NO)c2)[C@H](Cc2ccccc2)[C@H](O)CN1S(=O)(=O)c1cccc(OC)c1`, the EC50 stood at 30 nM.
